Where only a bound is given, the exact number is not on record here.

The target in the first assay is NLRP3 inflammasome (Homo sapiens (Human), UniProt Q96P20). As to the kind of experiment: Evaluation of NLRP3 inflammasome inhibitory activity (inhibition of IL-1β production in THP1-Null cells, LPS/Nigericin).
Chain of NLRP3 inflammasome (Q96P20 whole entry): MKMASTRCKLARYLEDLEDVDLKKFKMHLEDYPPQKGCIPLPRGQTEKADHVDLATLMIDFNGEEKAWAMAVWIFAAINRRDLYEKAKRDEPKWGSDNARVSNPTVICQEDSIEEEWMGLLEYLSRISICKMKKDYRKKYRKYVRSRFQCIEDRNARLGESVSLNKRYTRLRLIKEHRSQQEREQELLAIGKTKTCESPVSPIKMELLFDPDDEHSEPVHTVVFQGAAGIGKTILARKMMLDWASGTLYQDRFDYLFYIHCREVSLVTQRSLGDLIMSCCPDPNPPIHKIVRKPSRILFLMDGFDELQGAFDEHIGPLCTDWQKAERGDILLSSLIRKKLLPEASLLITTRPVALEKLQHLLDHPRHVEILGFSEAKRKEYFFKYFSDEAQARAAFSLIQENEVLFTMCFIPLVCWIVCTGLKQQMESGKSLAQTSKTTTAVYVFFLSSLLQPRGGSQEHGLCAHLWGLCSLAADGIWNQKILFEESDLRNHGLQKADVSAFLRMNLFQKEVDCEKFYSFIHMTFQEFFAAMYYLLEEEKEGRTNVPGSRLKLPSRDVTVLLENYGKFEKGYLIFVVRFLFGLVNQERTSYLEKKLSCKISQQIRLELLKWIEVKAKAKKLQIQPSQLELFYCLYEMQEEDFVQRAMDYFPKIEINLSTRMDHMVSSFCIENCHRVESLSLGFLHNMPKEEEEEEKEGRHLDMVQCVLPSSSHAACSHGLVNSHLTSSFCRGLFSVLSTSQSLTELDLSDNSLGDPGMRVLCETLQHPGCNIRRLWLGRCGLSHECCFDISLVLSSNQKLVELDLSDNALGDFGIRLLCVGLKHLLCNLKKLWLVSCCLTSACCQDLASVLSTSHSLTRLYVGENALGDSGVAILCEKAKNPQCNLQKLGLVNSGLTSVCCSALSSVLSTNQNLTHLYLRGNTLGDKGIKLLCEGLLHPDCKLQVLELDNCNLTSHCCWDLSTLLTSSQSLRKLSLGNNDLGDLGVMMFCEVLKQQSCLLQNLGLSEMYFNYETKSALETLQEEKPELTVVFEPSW
Conditions: not given
In turn, `COC(=O)C1COCCN1S(=O)(=O)NC(=O)c1coc(Nc2c3c(c(Cl)c4c2CCC4)CCC3)n1` (racemic) [Example 72] had an IC50 of 310 nM. Turning to `COC1CCCN(S(=O)(=O)NC(=O)c2coc(Nc3cc(C(F)(F)F)ccc3C)n2)CC1` (racemic) [Example 2-148], half-maximal inhibition (IC50) was put at 40 nM. On to `COC1COCCN(S(=O)(=O)NC(=O)c2coc(Nc3cc(C(C)(F)F)ccc3C)n2)C1` (racemic) [Example 2-185], for which the IC50 was found to be 38 nM. The compound `CCCS(=O)(=O)N1CCN(S(=O)(=O)NC(=O)c2coc(Nc3cc(C)ccc3C)n2)CC(OC)C1` (racemic) [Example 2-251] yielded an IC50 of 32 nM. As to `COC1COCCN(S(=O)(=O)NC(=O)c2coc(Nc3cc(C(F)F)ccc3C)n2)C1` (racemic) [Example 2-331], the IC50 was 59 nM. For `COC1CN(S(=O)(=O)CCCF)CCN(S(=O)(=O)NC(=O)c2coc(Nc3cc(C(F)(F)F)ccc3C)n2)C1` (racemic) [Example 2-205], inhibition was half-maximal at 36 nM (IC50). On to `CCCS(=O)(=O)N1CCN(S(=O)(=O)NC(=O)c2coc(Nc3cc(C(F)(F)F)ccc3C)n2)CC(F)C1` (racemic) [Example 2-222], for which the midpoint of inhibition, the IC50, lay at 30 nM.

For `Cc1ccc(C(F)(F)F)cc1Nc1nc(C(=O)NS(=O)(=O)N2CCOC(C)CC2)co1` (racemic) [Example 2-262], inhibition was half-maximal at 18 nM (IC50). Take `CCS(=O)(=O)N1CCCN(S(=O)(=O)NC(=O)c2coc(Nc3cc(C(F)(F)F)ccc3C)n2)CC1C` (racemic) [Example 2-242]: 45 nM corresponded to half-maximal inhibition (IC50). Compound `CCCCS(=O)(=O)N1CCN(S(=O)(=O)NC(=O)c2coc(Nc3cc(C(F)(F)F)ccc3C)n2)CC(F)C1` (racemic) [Example 2-197] yielded an IC50 of 17 nM. The same measure, in the same setting: to `CC(=O)N(C)C1CCCN(S(=O)(=O)NC(=O)c2coc(Nc3cc(C(F)(F)F)ccc3C)n2)CC1` (racemic) [Example 2-232] belongs 30 nM; to `Cc1ccc2c(c1Nc1nc(C(=O)NS(=O)(=O)N3CCC(O)C3)co1)CCC2` (racemic) [Example 30], 190 nM; to `Cc1ccc(C(F)(F)F)cc1Nc1nc(C(=O)NS(=O)(=O)N2CCOCC(C)C2)co1` (racemic) [Example 2-092], 22 nM.

The compound `Cc1cc(C)n(C2CCCN(S(=O)(=O)NC(=O)c3coc(Nc4cc(C(F)(F)F)ccc4C)n3)CC2)n1` (racemic) [Example 2-297] gave an IC50 of 87 nM. For `Cc1ccc(C(F)(F)F)cc1Nc1nc(C(=O)NS(=O)(=O)N2CCOCC2c2ccccc2)co1` (racemic) [Example 2-346], half-maximal inhibition (IC50) was put at 290 nM. Compound `Cc1ccc(C(F)(F)F)cc1Nc1nc(C(=O)NS(=O)(=O)N2CCOCC2C)co1` (racemic) [Example 2-005] showed an IC50 of 30 nM. `COC1COCCN(S(=O)(=O)NC(=O)c2coc(Nc3cc(C(F)(F)F)ccc3C(C)C)n2)C1` (racemic) [Example 2-121]: the midpoint of inhibition, the IC50, lay at 35 nM.

The same assay, now with this note: IL-1β production in THP1-Null cells, PMA/LPS primed, Nigericin 7.5 μmol/L.
`O=C(NS(=O)(=O)N1CCOC2(COC2)C1)c1coc(Nc2c3c(c(Cl)c4c2CCC4)CCC3)n1` [Example 57] showed an IC50 of 74 nM.

In turn, `O=C(NS(=O)(=O)N1CCCCC1)c1cnc(Nc2c3c(cc4c2CCC4)CCC3)o1` [Example 3] yielded an IC50 of 91 nM. `CN(C)S(=O)(=O)NC(=O)c1cnc(Nc2cccc3c2CCC3)o1` [Example 19] yielded an IC50 of 5700 nM. On the same count and under the same terms, for `C[C@H]1CCCN1S(=O)(=O)NC(=O)c1coc(Nc2c3c(c(Cl)c4c2CCC4)CCC3)n1` [Example 44] the value was 230 nM; for `O=C(NS(=O)(=O)N1CCOCC1)c1coc(Nc2c3c(c(Cl)c4c2CCC4)CCC3)n1` [Example 37], below 30 nM; for `CS(=O)(=O)N1CCN(S(=O)(=O)NC(=O)c2coc(Nc3c4c(c(Cl)c5c3CCC5)CCC4)n2)CC1` [Example 55], 160 nM. With `C[C@@H]1CCCN1S(=O)(=O)NC(=O)c1coc(Nc2c3c(c(Cl)c4c2CCC4)CCC3)n1` [Example 45], 200 nM corresponded to half-maximal inhibition (IC50). In the case of `CC(=O)NC1CCN(S(=O)(=O)NC(=O)c2coc(Nc3c4c(c(F)c5c3CCC5)CCC4)n2)CC1` [Example 62], the IC50 was found to be 270 nM. Compound `CCOC(=O)c1c2c(nn1C)CN(S(=O)(=O)NC(=O)c1coc(Nc3c4c(c(F)c5c3CCC5)CCC4)n1)C2` [Example 67] displayed an IC50 of 840 nM.

For the compound `CN(C)S(=O)(=O)NC(=O)c1cnc(Nc2c3c(c(F)c4c2CCC4)CCC3)o1` [Example 26], the IC50 is 130 nM.

`O=C(NS(=O)(=O)NCc1ccccc1)c1cnc(Nc2c3c(cc4c2CCC4)CCC3)o1` [Example 8] returned a half-maximal inhibitory concentration (IC50) of 440 nM. Still for that read-out and setting: for `Cn1cc(N(C2CCOCC2)S(=O)(=O)NC(=O)c2cnc(Nc3c4c(cc5c3CCC5)CCC4)o2)cn1` [Example 18] the value was 5400 nM.

The assay is the same for the next values; noted with them: inhibition of IL-1β production in THP1-Null cells.
`Cc1ccc(C2(C#N)CC2)cc1Nc1nc(C(=O)NS(=O)(=O)N2CCCOCC2)co1` [Example 2-107] yielded an IC50 of 150 nM. For the compound `CC(C)c1cn(C(C)C)nc1Nc1nc(C(=O)NS(=O)(=O)N2CCCOCC2)co1` [Example 2-116], inhibition was half-maximal at 85 nM (IC50). `Cc1ccc(C(F)(F)F)cc1Nc1nc(C(=O)NS(=O)(=O)N2CCCN(c3cnccn3)CC2)co1` [Example 2-245] showed an IC50 of 73 nM.

In the case of `Cc1ccc(C(F)(F)F)nc1Nc1nc(C(=O)NS(=O)(=O)N2CCCOCC2)co1` [Example 2-088], the IC50 amounted to 120 nM. Consider `COCC1CCN(S(=O)(=O)NC(=O)c2coc(Nc3cc(C(C)C)ccc3C)n2)CCO1` (centres unmarked) [Example 2-295], for which the IC50 is 30 nM. For `Cc1ccc(C(C)(F)F)cc1Nc1nc(C(=O)NS(=O)(=O)N(C)C)co1` [Example 2-013], inhibition was half-maximal at 64 nM (IC50). The compound `CCN(C)S(=O)(=O)N1CCCN(S(=O)(=O)NC(=O)c2coc(Nc3cc(C(F)(F)F)ccc3C)n2)CC1` [Example 2-129] registered an IC50 of 20 nM. `CC(C)c1cn(C(C)C)nc1Nc1nc(C(=O)NS(=O)(=O)N(C)C(C)C)co1` [Example 2-138]: 92 nM corresponded to half-maximal inhibition (IC50).

`CC(C)c1ccc2c(c1Nc1nc(C(=O)NS(=O)(=O)N3CCCOCC3)co1)CCC2` [Example 2-119]: the IC50 was found to be 96 nM. Compound `CCCS(=O)(=O)N1CCCN(S(=O)(=O)NC(=O)c2coc(Nc3cc(C)c(C)cc3C)n2)CC1` [Example 2-289] registered an IC50 of 46 nM.

`Cc1ccc(C(F)(F)F)cc1Nc1nc(C(=O)NS(=O)(=O)N2CCCN(S(=O)(=O)CCC(F)(F)F)CC2)co1` [Example 2-130] gave an IC50 of 20 nM. `Cc1ccc(C(F)(F)F)cc1Nc1nc(C(=O)NS(=O)(=O)N2CCOC(CO)CC2)co1` (centres unmarked) [Example 2-272] returned an IC50 of 27 nM. On to `Cc1ccc(C(C)C)c(Nc2nc(C(=O)NS(=O)(=O)N3CCCOCC3)co2)c1` [Example 2-308], for which the IC50 was 82 nM. For the compound `Cc1ccc(S(F)(F)(F)(F)F)cc1Nc1nc(C(=O)NS(=O)(=O)N(C)C)co1` [Example 2-034], the IC50 turned out to be 100 nM. With `Cc1ccc(C(C)C)cc1Nc1nc(C(=O)NS(=O)(=O)N2CCCOCC2)co1` [Example 2-047], the IC50 is below 30 nM. As for `CCc1ccc(C(F)(F)F)cc1Nc1nc(C(=O)NS(=O)(=O)N(C)C)co1` [Example 2-060], the IC50 amounted to 46 nM. The same measure, in the same setting: for `Cc1ccc(C(F)(F)F)cc1Nc1nc(C(=O)NS(=O)(=O)N2CCCC(c3ncccn3)[C@@H](C)C2)co1` (some centres unmarked) [Example 2-312] the value was 140 nM; for `Cc1ncc(C(F)(F)F)cc1Nc1nc(C(=O)NS(=O)(=O)N2CCCOCC2)co1` [Example 2-104], 1800 nM; for `CCCC(=O)N1CCCN(S(=O)(=O)NC(=O)c2coc(Nc3cc(C(F)F)ccc3C(C)C)n2)CC1` [Example 2-223], 71 nM. Still for that read-out and setting: to `Cc1ccc(C(F)(F)F)cc1Nc1nc(C(=O)NS(=O)(=O)N2CCCN(c3nccc(C(C)C)n3)CC2)co1` [Example 2-186] belongs 41 nM. For the compound `Cc1ccc(C(F)F)cc1Nc1nc(C(=O)NS(=O)(=O)N2CCCOCC2)co1` [Example 2-043], it took 49 nM to reach half-maximal inhibition (IC50). `CC(C)n1cc(Nc2nc(C(=O)NS(=O)(=O)N3CCCOCC3)co2)c(C(C)(C)C)n1` [Example 2-194] showed an IC50 of 1500 nM. The same measure, in the same setting: for `CC(C)c1cn(C(C)C)nc1Nc1nc(C(=O)NS(=O)(=O)N(C)C)co1` [Example 2-117] the value was 110 nM. For `COc1ccc(C(F)(F)F)cc1Nc1nc(C(=O)NS(=O)(=O)N2CCCOCC2)co1` [Example 2-137], inhibition was half-maximal at 130 nM (IC50).

As to `Cc1ccc(C(C)C)cc1Nc1nc(C(=O)NS(=O)(=O)N(C)C)cs1` [Example 2-054], inhibition was half-maximal at 52 nM (IC50). The compound `Cc1cnn(C2CCCN(S(=O)(=O)NC(=O)c3coc(Nc4cc(C(F)(F)F)ccc4C)n3)CC2)c1` (centres unmarked) [Example 2-298] showed an IC50 of 67 nM. `Cc1ccc(CC(F)(F)F)cc1Nc1nc(C(=O)NS(=O)(=O)N2CCCOCC2)co1` [Example 2-063] came in with an IC50 of 67 nM.

The compound `Cc1ccc(C(C)C)cc1Nc1nc(C(=O)NS(=O)(=O)N2CCOC(COC(F)F)CC2)co1` (centres unmarked) [Example 2-326] gave an IC50 of 26 nM.

Consider `COCC1CCN(S(=O)(=O)NC(=O)c2coc(Nc3cc(C(F)F)ccc3C)n2)CCO1` (centres unmarked) [Example 2-327], for which the IC50 came to 29 nM. Same read-out and setting: for `Cc1ccc(C(F)(F)F)cc1Nc1nc(C(=O)NS(=O)(=O)N2CCOC(C#N)CC2)co1` (centres unmarked) [Example 2-264] the value was 38 nM; for `CCOCC1CCN(S(=O)(=O)NC(=O)c2coc(Nc3cc(C(F)(F)F)ccc3C)n2)CCO1` (centres unmarked) [Example 2-301], 11 nM. `Cc1ccc(C(F)(F)F)cc1Nc1nc(C(=O)NS(=O)(=O)N2CCCOCC2)cs1` [Example 2-066] displayed an IC50 below 30 nM.

The assay is the same for the next values; noted with them: read-out: % inhibition at 3 μM.
Turning to `Cc1ccc(C)c(Nc2nc(C(=O)NS(=O)(=O)N3CCC[C@H]3CN3CCCC3)co2)c1` [Example 2-321], the inhibition at 3 µM was -11%. Consider `Cc1cn(C(F)F)nc1Nc1nc(C(=O)NS(=O)(=O)N2CCCOCC2)co1` [Example 2-209], for which the inhibition at 3 µM was determined as 33%. Consider `Cc1cn(CC(C)C)nc1Nc1nc(C(=O)NS(=O)(=O)N2CCCOCC2)co1` [Example 2-189], for which the inhibition at 3 µM was found to be 16%.

The same assay, now with this note: read-out: Inhibition at 30 μM.
On to `O=C(NS(=O)(=O)N1CCC2(COC2)C1)c1coc(Nc2c3c(c(Cl)c4c2CCC4)CCC3)n1` [Example 48], for which the inhibition at 30 µM amounted to 23%.

The record behind these values is US20230399319A1, “Acylsulfamide Compound and Pharmaceutical Use Therefor” (Japan Tobacco Inc., priority 2019, published 2023).
